Test results reported in publication PMC9558907, “Synthesis and pharmacological evaluation of newly detected synthetic cannabinoid receptor agonists AB-4CN-BUTICA, MMB-4CN-BUTINACA, MDMB-4F-BUTICA, MDMB-4F-BUTINACA and their analogs” (Frontiers in Psychiatry, 2022).

Experiments:
human CB1 [1] = biological target: T1, human CB1 (Homo sapiens, UniProt P21554); assay: fluorescence-based membrane potential assay (GIRK activation) in AtT20 cells; assay type: cell-based; design: expressed in transfected cells; host or cells: mouse AtT20 FlpIn cells; conditions: for hCB1 maximal response at 10 μM (footnote d): highest concentration tested, curve not fitted; for hCB1 Emax ±SEM: normalised to 1 μM CP55,940
T1 sequence (P21554 whole entry): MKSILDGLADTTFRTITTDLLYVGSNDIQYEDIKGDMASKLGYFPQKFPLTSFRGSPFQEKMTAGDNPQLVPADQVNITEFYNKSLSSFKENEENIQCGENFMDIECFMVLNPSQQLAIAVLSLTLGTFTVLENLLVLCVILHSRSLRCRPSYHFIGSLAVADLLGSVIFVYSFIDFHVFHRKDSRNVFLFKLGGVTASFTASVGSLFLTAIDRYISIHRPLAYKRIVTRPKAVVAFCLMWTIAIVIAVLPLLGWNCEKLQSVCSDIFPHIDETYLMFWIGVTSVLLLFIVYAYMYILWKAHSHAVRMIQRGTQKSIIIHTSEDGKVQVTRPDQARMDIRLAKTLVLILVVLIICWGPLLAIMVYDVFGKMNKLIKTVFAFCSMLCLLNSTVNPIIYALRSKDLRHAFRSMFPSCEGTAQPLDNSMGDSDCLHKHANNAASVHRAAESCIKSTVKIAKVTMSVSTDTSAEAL

human CB2 [2] = biological target: T2, human CB2 (Homo sapiens, UniProt P34972); assay: as above; assay type: cell-based; design: expressed in transfected cells; host or cells: mouse AtT20 FlpIn cells; conditions: for hCB2 Emax ±SEM: normalised to 1 μM CP55,940
T2 sequence (P34972 whole entry): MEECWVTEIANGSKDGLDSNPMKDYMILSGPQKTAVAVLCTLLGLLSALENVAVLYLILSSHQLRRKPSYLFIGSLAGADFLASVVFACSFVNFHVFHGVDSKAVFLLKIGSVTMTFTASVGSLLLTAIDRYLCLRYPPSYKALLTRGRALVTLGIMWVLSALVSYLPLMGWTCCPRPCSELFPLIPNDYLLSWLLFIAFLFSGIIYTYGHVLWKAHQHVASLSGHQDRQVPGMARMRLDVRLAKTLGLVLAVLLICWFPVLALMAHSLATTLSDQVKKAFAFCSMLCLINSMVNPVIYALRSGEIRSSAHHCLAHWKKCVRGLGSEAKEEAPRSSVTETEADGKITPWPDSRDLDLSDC

human CB1 [3] = biological target: T1, human CB1; assay: competitive radioligand binding assay, displacement of [3H]CP55,940, HEK cell membranes; design: expressed in transfected cells; host or cells: HEK293 cells, P2 membrane preparation; conditions: [3H]CP55,940 1 nM
human CB2 [4] = biological target: T2, human CB2; assay: as above; design: expressed in transfected cells; host or cells: HEK293 cells, P2 membrane preparation; conditions: [3H]CP55,940 1 nM
[5] = AtT20-hCB1, DNC = did not converge, ND = < 50% change in fluorescence at 10 μM
[6] = hCB2 EC50, AtT20-hCB2, value in brackets after pEC50
[7] = hCB1 Ki, value in brackets after pKi
[8] = hCB2 Ki, value in brackets after pKi
[9] = hCB1 EC50, AtT20-hCB1, value in brackets after pEC50
[10] = hCB1 pKi ±SEM, mean ± SEM of 3 to 6 independent experiments

Compound | melting point [°C] | hCB1 maximal response at 10 μM (footnote d) (human CB1 [1]; AtT20-hCB1) | hCB1 pEC50 ±SEM (human CB1 [1]; [5]) | hCB2 Emax ±SEM (human CB2 [2]; AtT20-hCB2) | EC50 (human CB2 [2]; [6]) [nM] | Ki (human CB1 [3]; [7]) [nM] | Ki (human CB2 [4]; [8]) [nM] | hCB1 Emax ±SEM (human CB1 [1]; AtT20-hCB1) | EC50 (human CB1 [1]; [9]) [nM] | hCB1 maximal response at 10 μM (footnote d) (human CB1 [1]; AtT20-hCB1, listed as APP-4CN-BUT7AICA (16)) | hCB2 Emax ±SEM (human CB2 [2]; AtT20-hCB2, listed as APP-4CN-BUT7AICA (16)) | EC50 (human CB2 [2]; hCB2 pEC50 ±SEM, AtT20-hCB2) [nM] | Ki (human CB1 [3]; [10]) [nM] | EC50 (human CB1 [1]; hCB1 pEC50 ±SEM, AtT20-hCB1, DNC = did not converge, ND = < 50% change in fluorescence at 10 μM) [nM] | hCB1 maximal response at 10 μM (footnote d) (human CB1 [1]; AtT20-hCB1, listed as APP-4F-BUTICA (27)) | Ki (human CB2 [4]; hCB2 pKi ±SEM, mean ± SEM of 3 to 6 independent experiments) [nM]
CC(C)[C@H](NC(=O)c1cn(CCCCC#N)c2ncccc12)C(N)=O [Compound 14, (S)-N-(1-amino-3-methyl-1-oxobutan-2-yl)-1-(4-cyanobutyl)-1H-pyrrolo[2,3-b]pyridine-3-carboxamide] | 181 to 182 | 80 ± 3^d % CP55,940 | DNC^b | 87 ± 5 % CP55,940 | 390 | 2570 | 3240 |  |  |  |  |  |  |  |  | 
CC(C)(C)[C@H](NC(=O)c1cn(CCCCC#N)c2ncccc12)C(N)=O [Compound 15, (S)-N-(1-amino-3,3-dimethyl-1-oxobutan-2-yl)-1-(4-cyanobutyl)-1H-pyrrolo[2,3-b]pyridine-3-carboxamide] | 93 to 94 |  |  | 96 ± 1 % CP55,940 | 6.09 | 155 | 145 | 102 ± 4 % CP55,940 | 14 |  |  |  |  |  |  | 
N#CCCCCn1cc(C(=O)N[C@@H](Cc2ccccc2)C(N)=O)c2cccnc21 [Compound 16, (S)-N-(1-amino-1-oxo-3-phenylpropan-2-yl)-1-(4-cyanobutyl)-1H-pyrrolo[2,3-b]pyridine-3-carboxamide] | 182 to 184 | submaximal agonist activity |  |  | 232 |  | 1860 |  |  | 25 ± 3^d % CP55,940 | 72 ± 3 % CP55,940 | 229 | > 10000 |  |  | 
COC(=O)[C@@H](NC(=O)c1cn(CCCCC#N)c2ccccc12)C(C)(C)C [Compound 18, methyl (S)-2-(1-(4-cyanobutyl)-1H-indole-3-carboxamido)-3,3-dimethylbutanoate] | 124 to 127 |  |  | 101 ± 4 % CP55,940 | 4.04 | 6.61 | 2.04 | 111 ± 3 % CP55,940 | 2.68 |  |  |  |  |  |  | 
COC(=O)[C@H](Cc1ccccc1)NC(=O)c1cn(CCCCC#N)c2ccccc12 [Compound 19, methyl (1-(4-cyanobutyl)-1H-indole-3-carbonyl)-L-phenylalaninate] | 144 to 146 |  |  | 105 ± 3 % CP55,940 | 8.44 | 85.1 | 8.71 | 109 ± 3 % CP55,940 | 35.5 |  |  |  |  |  |  | 
COC(=O)[C@H](Cc1ccccc1)NC(=O)c1nn(CCCCC#N)c2ccccc12 [Compound 21, methyl (1-(4-cyanobutyl)-1H-indazole-3-carbonyl)-L-phenylalaninate] | 82.5 to 84.5 |  |  | 100 ± 2 % CP55,940 | 3.24 | 20.9 | 3.8 | 115 ± 3 % CP55,940 | 8.72 |  |  |  |  |  |  | 
COC(=O)[C@H](Cc1ccccc1)NC(=O)c1cn(CCCCC#N)c2ncccc12 [Compound 24, methyl (1-(4-cyanobutyl)-1H-pyrrolo[2,3-b]pyridine-3-carbonyl)-L-phenylalaninate] | 102 to 105 |  |  | 104 ± 2 % CP55,940 | 14.3 | 380 | 55 | 110 ± 5 % CP55,940 | 189 |  |  |  |  | 186 |  | 
CC(C)[C@H](NC(=O)c1cn(CCCCF)c2ccccc12)C(N)=O [Compound 25, (S)-N-(1-amino-3-methyl-1-oxobutan-2-yl)-1-(4-fluorobutyl)-1H-indole-3-carboxamide] | 225 to 227 |  |  | 97 ± 2 % CP55,940 | 23.5 | 1000 | 82 | 108 ± 3 % CP55,940 | 96.5 |  |  |  |  |  |  | 
CC(C)(C)[C@H](NC(=O)c1cn(CCCCF)c2ccccc12)C(N)=O [Compound 26, (S)-N-(1-amino-3,3-dimethyl-1-oxobutan-2-yl)-1-(4-fluorobutyl)-1H-indole-3-carboxamide] | 92 to 94 |  |  | 105 ± 4 % CP55,940 | 44.1 |  | 8 | 110 ± 4 % CP55,940 | 40.4 |  |  |  | 34.7 |  |  | 
NC(=O)[C@H](Cc1ccccc1)NC(=O)c1cn(CCCCF)c2ccccc12 [Compound 27, (S)-N-(1-amino-1-oxo-3-phenylpropan-2-yl)-1-(4-fluorobutyl)-1H-indole-3-carboxamide] | 102 to 104 | submaximal agonist activity | DNC^b | 108 ± 8 % CP55,940 | 306 | 3200 | 170 |  |  |  |  |  | 3160 |  | 82 ± 4^d % CP55,940 | 174
CC(C)[C@H](NC(=O)c1nn(CCCCF)c2ccccc12)C(N)=O [Compound 28, (S)-N-(1-amino-3-methyl-1-oxobutan-2-yl)-1-(4-fluorobutyl)-1H-indazole-3-carboxamide] | 188 to 190 |  |  | 96 ± 1 % CP55,940 | 4.85 |  | 8.5 | 107 ± 2 % CP55,940 | 5.98 |  |  |  | 132 |  |  | 
CC(C)(C)[C@H](NC(=O)c1nn(CCCCF)c2ccccc12)C(N)=O [Compound 29, (S)-N-(1-amino-3,3-dimethyl-1-oxobutan-2-yl)-1-(4-fluorobutyl)-1H-indazole-3-carboxamide] | 77 to 79 |  |  | 103 ± 2 % CP55,940 | 5.28 | 4.07 | 0.69 | 116± 2 % CP55,940 | 1.61 |  |  |  |  |  |  | 
NC(=O)[C@H](Cc1ccccc1)NC(=O)c1nn(CCCCF)c2ccccc12 [Compound 30, (S)-N-(1-amino-1-oxo-3-phenylpropan-2-yl)-1-(4-fluorobutyl)-1H-indazole-3-carboxamide] | 100 to 103 |  |  | 101 ± 12 % CP55,940 | 8.35 | 1380 | 28.2 | 103 ± 3 % CP55,940 | 504 |  |  |  |  |  |  | 
CC(C)(C)[C@H](NC(=O)c1cn(CCCCF)c2ncccc12)C(N)=O [Compound 32, (S)-N-(1-amino-3,3-dimethyl-1-oxobutan-2-yl)-1-(4-fluorobutyl)-1H-pyrrolo[2,3-b]pyridine-3-carboxamide] | 95 to 96 |  |  | 108 ± 2 % CP55,940 | 4.99 | 1300 | 46 | 112 ± 6 % CP55,940 | 46 |  |  |  | 1260 |  |  | 
